Data: patent US20250213627A1, “RECOMBINANT MICROORGANISM-BASED METHODS AND COMPOSITIONS FOR TREATMENT OF DISEASE” (Baylor College of Medicine, priority 2021, published 2025)
Entries after “also recorded” stand apart in the source; their conditions may differ.

Key:
anti-ShK-235 IgG = assay: Immunogenicity ELISA on sera of CIA rats; format: in vivo, rat; conditions: sera at end of 21-day CIA trial
Method: (§1) To test if ShK-235 produced by LrS235 is immunogenic, the sera of rats were assessed at the end of the 21-day CIA trial shown in FIG. 8 for anti-ShK-235 IgG by ELISA assay. Plates coated with collagen II and HsTX1[R14A] were used as controls. HsTX1[R14A] is another peptide blocker of Kv1.3 with no sequence or structural homology to ShK-235.
Immunogenicity assays in rats with CIA. High-protein binding 96-well microplates (3855, ThermoFisher, MA, US) were coated overnight with 10 μg/ml of either porcine collagen II (20031, Chondrex, Woodinville, WI), ShK-235, or HsTX1[R14A], dissolved in PBS. Non-specific binding sites were blocked with PBS+5% skimmed milk and washed with PBS+0.05% Tween 20 before adding serum from the CIA rats, diluted in PBS. After washes, anti-rat IgG antibodies conjugated to horseradish peroxidase (1 μg/ml; Pierce catalog 31471, lot UA280036) were added to all the wells. One-step TMB-ELISA (34028, ThermoFisher, MA, US) was used to detect absorbance on a plate reader at 650 nm.

[1] = tested on: ShK-235 neutralizing antibodies; assay: Antibody neutralization assay with CIA rat serum; format: cell-based; conditions: CIA rat serum samples
Method: as §1
Antibody neutralization assays. […] It was then added to the PBMCs loaded with CELLTRACE™ Violet (C34557, ThermoFisher, MA, US), and T cells proliferation was assessed as described above.

[2] = Thermal stability of peptide

In the case of CC[C@H](C)[C@@H]1NC(=O)[C@H](CO)NC(=O)[C@H](Cc2c[nH]cn2)NC(=O)[C@H](CCCCN)NC(=O)[C@@H]2CSSC[C@@H]3NC(=O)[C@H]([C@@H](C)O)NC(=O)[C@H](CCCCN)NC(=O)[C@H](CCCNC(=N)N)NC(=O)[C@H](CSSC[C@H](NC(=O)[C@H](CCCNC(=N)N)NC(=O)[C@H](CO)NC(=O)[C@H](CCCCN)NC(=O)[C@@H]4CCCN4C(=O)[C@H]([C@@H](C)CC)NC(=O)[C@H]([C@@H](C)O)NC(=O)[C@H](CC(=O)O)NC(=O)[C@H]([C@@H](C)CC)NC(=O)[C@@H](NC(=O)[C@H](CO)NC(=O)[C@@H](N)CCCNC(=N)N)CSSC[C@@H](C(=O)N[C@@H](C)C(=O)O)NC(=O)[C@H]([C@@H](C)O)NC(=O)CNC3=O)C(=O)N[C@@H]([C@@H](C)O)C(=O)N[C@@H](C)C(=O)N[C@@H](Cc3ccccc3)C(=O)N[C@@H](CCCCN)C(=O)N2)NC(=O)[C@H](Cc2ccccc2)NC(=O)[C@H](CO)NC(=O)[C@H](CC(C)C)NC(=O)[C@H](CCCNC(=N)N)NC(=O)[C@H](Cc2ccc(O)cc2)NC(=O)[C@H](CCCCN)NC1=O [ShK-235], the “Anti-ShK-235 IgG titers / immunogenicity” value (anti-ShK-235 IgG) is reported as “very low titers; also recorded: not immunogenic”, the “Neutralization of ShK-235 by serum” value [1] is reported as “no neutralization” and the Temperature stability [2] is reported as “up to 80 °C”.
